Experimental data reported in ChEMBL document CHEMBL3885881, “DrugMatrix”.

Species on record: Rattus norvegicus
Experiment: DrugMatrix - Regimen: Daily Repeat
Type: toxicity, organism-based, Sprague-Dawley
Set-up: regimen Daily Repeat, gender Male, age 6-8 weeks
Details: in vivo, iv, vehicle 100 % SALINE; for ABSOLUTE BASOPHIL / ABSOLUTE EOSINOPHIL / ABSOLUTE LYMPHOCYTE / ABSOLUTE MONOCYTE / ABSOLUTE SEGMENTED NEUTROPHIL / BASOPHIL / EOSINOPHIL / ERYTHROCYTE COUNT / HEMATOCRIT / HEMOGLOBIN / LEUKOCYTE COUNT / LYMPHOCYTE / MEAN CORPUSCULAR HEMOGLOBIN / MEAN CORPUSCULAR HEMOGLOBIN CONCENTRATION / MEAN CORPUSCULAR VOLUME / MONOCYTE / NEUTROPHIL / NUCLEATED RED BLOOD CELLS / PLATELET COUNT: tissue Blood; for ALANINE AMINOTRANSFERASE / ALBUMIN / ALKALINE PHOSPHATASE / ASPARTATE AMINOTRANSFERASE / BLOOD UREA NITROGEN / CARBON DIOXIDE / CHLORIDE / CHOLESTEROL / CREATINE PHOSPHOKINASE / CREATININE / GLUCOSE / LACTATE DEHYDROGENASE / LIPASE / PHOSPHORUS / POTASSIUM / SODIUM / TOTAL BILIRUBIN / TOTAL PROTEIN / URIC ACID: tissue Plasma
[1] = 0.01 mg/kg, 72 h, dose level Low, time 3 day
[2] = 0.01 mg/kg, 120 h, dose level Low, time 5 day
[3] = 15 mg/kg, 72 h, dose level High, time 3 day

## CC(C)NCC(O)c1ccc(O)c(O)c1 (centres undefined) [ISOPROTERENOL]
[1]
  ABSOLUTE BASOPHIL: 0 CELLS/uL
  ABSOLUTE EOSINOPHIL: 134.67 CELLS/uL
  ABSOLUTE LYMPHOCYTE: 13411.33 CELLS/uL
  ABSOLUTE MONOCYTE: 299.67 CELLS/uL
  ABSOLUTE SEGMENTED NEUTROPHIL: 1854.33 CELLS/uL
  BASOPHIL: 0%
  EOSINOPHIL: 0.67%
  ERYTHROCYTE COUNT: 5.6 x10E6/uL
  HEMATOCRIT: 34.43%
  HEMOGLOBIN: 12.9 G/DL
  LEUKOCYTE COUNT: 15.7 x10E3/uL
  LYMPHOCYTE: 85.33%
  MEAN CORPUSCULAR HEMOGLOBIN: 23.03 pg
  MEAN CORPUSCULAR HEMOGLOBIN CONCENTRATION: 37.47 G/DL
  MEAN CORPUSCULAR VOLUME: 61.43 fL
  MONOCYTE: 2%
  NEUTROPHIL: 12%
  NUCLEATED RED BLOOD CELLS: 0 /100WBC
  PLATELET COUNT: 1265.33 x10E3/uL
  ALANINE AMINOTRANSFERASE: 39.67 u/L
  ALBUMIN: 4.4 G/DL
  ALKALINE PHOSPHATASE: 368 u/L
  ASPARTATE AMINOTRANSFERASE: 75 u/L
  BLOOD UREA NITROGEN: 14.33 mg/dL
  CARBON DIOXIDE: 25 mmol/L
  CHLORIDE: 104 MEQ/L
  CHOLESTEROL: 69.67 mg/dL
  CREATINE PHOSPHOKINASE: 196.33 u/L
  CREATININE: 0.24 mg/dL
  GLUCOSE: 149.67 mg/dL
  LACTATE DEHYDROGENASE: 289 u/L
  LIPASE: 9.67 u/L
  PHOSPHORUS: 13.47 mg/dL
  POTASSIUM: 6.71 MEQ/L
  SODIUM: 146.07 MEQ/L
  TOTAL BILIRUBIN: 0.2 mg/dL
  TOTAL PROTEIN: 5.97 G/DL
  URIC ACID: 2.17 mg/dL
[2]
  ABSOLUTE BASOPHIL: 0 CELLS/uL
  ABSOLUTE EOSINOPHIL: 0 CELLS/uL
  ABSOLUTE LYMPHOCYTE: 15742 CELLS/uL
  ABSOLUTE MONOCYTE: 224 CELLS/uL
  ABSOLUTE SEGMENTED NEUTROPHIL: 800.67 CELLS/uL
  BASOPHIL: 0%
  EOSINOPHIL: 0%
  ERYTHROCYTE COUNT: 5.33 x10E6/uL
  HEMATOCRIT: 32.33%
  HEMOGLOBIN: 12.57 G/DL
  LEUKOCYTE COUNT: 16.77 x10E3/uL
  LYMPHOCYTE: 94%
  MEAN CORPUSCULAR HEMOGLOBIN: 23.6 pg
  MEAN CORPUSCULAR HEMOGLOBIN CONCENTRATION: 38.9 G/DL
  MEAN CORPUSCULAR VOLUME: 60.67 fL
  MONOCYTE: 1.33%
  NEUTROPHIL: 4.67%
  NUCLEATED RED BLOOD CELLS: 0 /100WBC
  PLATELET COUNT: 1122.67 x10E3/uL
  ALANINE AMINOTRANSFERASE: 81 u/L
  ALBUMIN: 3.6 G/DL
  ALKALINE PHOSPHATASE: 310 u/L
  ASPARTATE AMINOTRANSFERASE: 65 u/L
  BLOOD UREA NITROGEN: 16.67 mg/dL
  CARBON DIOXIDE: 24 mmol/L
  CHLORIDE: 107.5 MEQ/L
  CHOLESTEROL: 61.33 mg/dL
  CREATINE PHOSPHOKINASE: 282.67 u/L
  CREATININE: 0.3 mg/dL
  GLUCOSE: 161.67 mg/dL
  LACTATE DEHYDROGENASE: 140 u/L
  LIPASE: 11 u/L
  PHOSPHORUS: 11.23 mg/dL
  POTASSIUM: 6.08 MEQ/L
  SODIUM: 146.4 MEQ/L
  TOTAL BILIRUBIN: 0.13 mg/dL
  TOTAL PROTEIN: 5.73 G/DL
  URIC ACID: 1.3 mg/dL
[3]
  ABSOLUTE BASOPHIL: 0 CELLS/uL
  ABSOLUTE EOSINOPHIL: 47.67 CELLS/uL
  ABSOLUTE LYMPHOCYTE: 15188.67 CELLS/uL
  ABSOLUTE MONOCYTE: 404 CELLS/uL
  ABSOLUTE SEGMENTED NEUTROPHIL: 1159.67 CELLS/uL
  BASOPHIL: 0%
  EOSINOPHIL: 0.33%
  ERYTHROCYTE COUNT: 5.66 x10E6/uL
  HEMATOCRIT: 36.93%
  HEMOGLOBIN: 13.6 G/DL
  LEUKOCYTE COUNT: 16.8 x10E3/uL
  LYMPHOCYTE: 90.67%
  MEAN CORPUSCULAR HEMOGLOBIN: 24 pg
  MEAN CORPUSCULAR HEMOGLOBIN CONCENTRATION: 36.83 G/DL
  MEAN CORPUSCULAR VOLUME: 65.2 fL
  MONOCYTE: 2.33%
  NEUTROPHIL: 6.67%
  NUCLEATED RED BLOOD CELLS: 0 /100WBC
  PLATELET COUNT: 1372 x10E3/uL
  ALANINE AMINOTRANSFERASE: 39 u/L
  ALBUMIN: 4.1 G/DL
  ALKALINE PHOSPHATASE: 370.67 u/L
  ASPARTATE AMINOTRANSFERASE: 73.67 u/L
  BLOOD UREA NITROGEN: 19.33 mg/dL
  CARBON DIOXIDE: 24.67 mmol/L
  CHLORIDE: 106 MEQ/L
  CHOLESTEROL: 80.33 mg/dL
  CREATINE PHOSPHOKINASE: 282.67 u/L
  CREATININE: 0.17 mg/dL
  GLUCOSE: 151.33 mg/dL
  LACTATE DEHYDROGENASE: 128.33 u/L
  LIPASE: 9 u/L
  PHOSPHORUS: 10.87 mg/dL
